# Calls of active or inactive are those of the source. The rule behind the calls is not given here. Residues, ends and D or L forms follow the SMILES beside them.
# Columns and labels:
# [1] = tested on: Bordetella bronchiseptica; assay: Antimicrobial activity against Bordetella bronchiseptica CUN11844-99 by broth microdilution method; assay type: functional
# [2] = tested on: Pseudomonas aeruginosa; assay: Antimicrobial activity against Pseudomonas aeruginosa CUN 4158-02 by broth microdilution method; assay type: functional
# [3] = tested on: Pseudomonas aeruginosa; assay: Antimicrobial activity against Pseudomonas aeruginosa ATCC 27853 by broth microdilution method; assay type: functional
# [4] = tested on: Escherichia coli; assay: Antimicrobial activity against Escherichia coli ATCC 25922 by broth microdilution method; assay type: functional
# [5] = tested on: Staphylococcus aureus; assay: Antimicrobial activity against Staphylococcus aureus ATCC 25923 by broth microdilution method; assay type: functional
# [6] = tested on: Staphylococcus aureus; assay: Antimicrobial activity against methicillin-resistant Staphylococcus aureus ATCC 43300 by broth microdilution method; assay type: functional
# [7] = tested on: Staphylococcus aureus; assay: Antimicrobial activity against methicillin-resistant Staphylococcus aureus CUN 3792-99 by broth microdilution method; assay type: functional
# [8] = tested on: Stenotrophomonas maltophilia; assay: Antimicrobial activity against […] Stenotrophomonas maltophilia CUN 3998-00 by broth microdilution method; assay type: functional
# [9] = tested on: Acinetobacter baumannii; assay: Antimicrobial activity against […] Acinetobacter baumannii ATCC 19606 by broth microdilution method; assay type: functional
# [10] = species: Homo sapiens; assay: Antiinflammatory activity in human MNC assessed as inhibition of LPS-induced TNFalpha production at compound: LPS ratio of 100:1 weight percent by ELISA; assay type: functional
# [11] = tested on: Mus musculus; assay: Antisepsis activity in Pseudomonas aeruginosa LPS-induced C57BL/6 mouse lethal endotoxin shock model assessed as mouse survival at 12.5 ug, ip administered immediately after LPS challenge; assay type: functional, organism-based
# [12] = Toxicity in human RBC assessed as hemolysis upto 25 ug/ml; assay type: cell-based; details: erythrocyte
SMILES,MIC [1] [µg/mL],MIC [2] [µg/mL],MIC [3] [µg/mL],MIC [4] [µg/mL],MIC [5] [µg/mL],MIC [6] [µg/mL],MIC [7] [µg/mL],MIC [8] [µg/mL],MIC [9] [µg/mL],inhibition [10],Activity [11],Activity [12]
N=C(N)NCCC[C@H](NC(=O)[C@H](Cc1ccc(O)cc1)NC(=O)[C@H](CCCCN)NC(=O)[C@H](CCCCN)NC(=O)[C@H](CS)NC(=O)CN)C(=O)N[C@@H](CCCNC(=N)N)C(=O)N[C@@H](Cc1ccccc1)C(=O)N[C@@H](CCCNC(=N)N)C(=O)N[C@@H](Cc1c[nH]c2ccccc12)C(=O)N[C@@H](CCCCN)C(=O)N[C@@H](Cc1ccccc1)C(=O)N[C@@H](CCCCN)C(=O)NCC(=O)N[C@@H](CCCCN)C(=O)N[C@@H](Cc1ccccc1)C(=O)N[C@@H](Cc1c[nH]c2ccccc12)C(=O)N[C@@H](Cc1ccccc1)C(=O)N[C@@H](Cc1c[nH]c2ccccc12)C(=O)N[C@@H](CS)C(=O)NCC(=O)O (H-GCKKYRRFRWKFKGKFWFWCG-OH),32,256,128,128,128,128,1020,512,64,Active,Active,
CC[C@H](C)[C@H](NC(=O)CN)C(=O)NCC(=O)N[C@@H](C)C(=O)N[C@H](C(=O)N[C@@H](CC(C)C)C(=O)N[C@@H](CCCCN)C(=O)N[C@H](C(=O)N[C@@H](CC(C)C)C(=O)N[C@H](C(=O)N[C@H](C(=O)NCC(=O)N[C@@H](CC(C)C)C(=O)N1CCC[C@H]1C(=O)N[C@@H](C)C(=O)N[C@@H](CC(C)C)C(=O)N[C@H](C(=O)N[C@@H](CO)C(=O)N[C@@H](Cc1c[nH]c2ccccc12)C(=O)N[C@H](C(=O)N[C@@H](CCCCN)C(=O)N[C@@H](CCCNC(=N)N)C(=O)N[C@@H](CCCCN)C(=O)N[C@@H](CCCNC(=N)N)C(=O)N[C@@H](CCC(N)=O)C(=O)N[C@@H](CCC(N)=O)C(N)=O)[C@@H](C)CC)[C@@H](C)CC)[C@@H](C)O)[C@@H](C)O)C(C)C)C(C)C [MELITTIN],,,,,,,,,,,,Non-toxic
N=C(N)NCCC[C@H](NC(=O)CNC(=O)[C@H](CCCNC(=N)N)NC(=O)[C@H](Cc1ccc(O)cc1)NC(=O)[C@H](CCCNC(=N)N)NC(=O)[C@H](Cc1c[nH]c2ccccc12)NC(=O)[C@H](CCCCN)NC(=O)[C@H](CCCCN)NC(=O)[C@H](Cc1ccccc1)NC(=O)[C@H](CCCCN)NC(=O)[C@H](CCCCN)NC(=O)[C@H](Cc1ccccc1)NC(=O)[C@H](CCCNC(=N)N)NC(=O)[C@H](CCCNC(=N)N)NC(=O)[C@H](CS)NC(=O)CN)C(=O)N[C@@H](Cc1ccccc1)C(=O)N[C@@H](Cc1c[nH]c2ccccc12)C(=O)N[C@@H](Cc1ccccc1)C(=O)N[C@@H](Cc1c[nH]c2ccccc12)C(=O)N[C@@H](CS)C(=O)N[C@@H](Cc1ccccc1)C(=O)NCC(=O)O (H-GCRRFKKFKKWRYRGRFWFWCFG-OH),32,128,128,64,64,32,64,64,64,,,
CC(C)C[C@H](NC(=O)[C@H](Cc1c[nH]c2ccccc12)NC(=O)[C@H](CC(C)C)NC(=O)[C@H](CCCCN)NC(=O)[C@H](CCC(N)=O)NC(=O)[C@H](CCCCN)NC(=O)[C@H](CS)NC(=O)[C@H](CCCCN)NC(=O)[C@H](CC(C)C)NC(=O)[C@H](CCCCN)NC(=O)[C@H](Cc1ccccc1)NC(=O)[C@H](CCCNC(=N)N)NC(=O)[C@H](CCCNC(=N)N)NC(=O)[C@H](Cc1ccccc1)NC(=O)[C@H](CCCCN)NC(=O)[C@H](CCCCN)NC(=O)[C@H](CS)NC(=O)CN)C(=O)N[C@@H](Cc1c[nH]c2ccccc12)C(=O)N[C@@H](CS)C(=O)NCC(=O)O (H-GCKKFRRFKLKCKQKLWLWCG-OH),16,256,256,1020,1020,64,32,1020,64,,,
N=C(N)NCCC[C@H](NC(=O)CNC(=O)[C@H](CCCNC(=N)N)NC(=O)[C@H](Cc1ccccc1)NC(=O)[C@H](CCCNC(=N)N)NC(=O)[C@H](Cc1c[nH]c2ccccc12)NC(=O)[C@H](CCCCN)NC(=O)[C@H](Cc1ccccc1)NC(=O)[C@H](CCCCN)NC(=O)[C@H](CCCCN)NC(=O)[C@H](Cc1ccc(O)cc1)NC(=O)[C@H](CCCNC(=N)N)NC(=O)[C@H](CCCNC(=N)N)NC(=O)CN)C(=O)N[C@@H](Cc1ccccc1)C(=O)N[C@@H](Cc1c[nH]c2ccccc12)C(=O)N[C@@H](Cc1ccccc1)C(=O)N[C@@H](Cc1c[nH]c2ccccc12)C(=O)NCC(=O)O (H-GRRYKKFKWRFRGRFWFWG-OH),16,,,64,32,,,,,,,
N=C(N)NCCC[C@H](NC(=O)[C@H](Cc1ccc(O)cc1)NC(=O)[C@H](CCCNC(=N)N)NC(=O)[C@H](Cc1c[nH]c2ccccc12)NC(=O)[C@H](CCCNC(=N)N)NC(=O)[C@H](Cc1ccccc1)NC(=O)[C@H](CCCCN)NC(=O)[C@H](CCCCN)NC(=O)[C@H](Cc1c[nH]c2ccccc12)NC(=O)[C@H](CCCNC(=N)N)NC(=O)[C@H](CCCNC(=N)N)NC(=O)[C@H](CS)NC(=O)CN)C(=O)NCC(=O)N[C@@H](CCCCN)C(=O)N[C@@H](Cc1ccccc1)C(=O)N[C@@H](Cc1c[nH]c2ccccc12)C(=O)N[C@@H](Cc1ccccc1)C(=O)N[C@@H](Cc1c[nH]c2ccccc12)C(=O)N[C@@H](CS)C(=O)NCC(=O)O (H-GCRRWKKFRWRYRGKFWFWCG-OH),32,128,128,128,64,32,64,64,64,,,
CC(C)C[C@H](NC(=O)[C@H](CCCNC(=N)N)NC(=O)[C@H](CCCNC(=N)N)NC(=O)[C@H](Cc1ccccc1)NC(=O)[C@H](CCCCN)NC(=O)[C@H](CCCCN)NC(=O)[C@H](CS)NC(=O)CN)C(=O)N[C@@H](CCCCN)C(=O)N[C@@H](Cc1c[nH]c2ccccc12)C(=O)N[C@@H](CCCCN)C(=O)N[C@@H](Cc1ccc(O)cc1)C(=O)N[C@@H](CCCCN)C(=O)NCC(=O)N[C@@H](CCCCN)C(=O)N[C@@H](Cc1ccccc1)C(=O)N[C@@H](Cc1c[nH]c2ccccc12)C(=O)N[C@@H](Cc1ccccc1)C(=O)N[C@@H](Cc1c[nH]c2ccccc12)C(=O)N[C@@H](CS)C(=O)NCC(=O)O (H-GCKKFRRLKWKYKGKFWFWCG-OH),4,256,256,64,32,64,1020,512,64,Active,,
N=C(N)NCCC[C@H](NC(=O)[C@H](Cc1ccccc1)NC(=O)[C@H](CCCCN)NC(=O)[C@H](Cc1c[nH]c2ccccc12)NC(=O)[C@H](CS)NC(=O)[C@H](Cc1ccccc1)NC(=O)[C@H](CCCNC(=N)N)NC(=O)[C@H](Cc1ccc(O)cc1)NC(=O)[C@H](CCCCN)NC(=O)CNC(=O)[C@H](Cc1ccccc1)NC(=O)[C@H](CCCNC(=N)N)NC(=O)[C@H](Cc1c[nH]c2ccccc12)NC(=O)[C@H](CCCCN)NC(=O)CNC(=O)[C@H](Cc1ccccc1)NC(=O)[C@@H](N)CCCCN)C(=O)NCC(=O)N[C@@H](Cc1c[nH]c2ccccc12)C(=O)N[C@@H](CCCCN)C(=O)O (H-KFGKWRFGKYRFCWKFRGWK-OH),,,,,,,,,,,,Non-toxic
N=C(N)NCCC[C@H](NC(=O)[C@H](Cc1ccc(O)cc1)NC(=O)[C@H](CCCCN)NC(=O)[C@H](CCCCN)NC(=O)CN)C(=O)N[C@@H](CCCNC(=N)N)C(=O)N[C@@H](Cc1ccccc1)C(=O)N[C@@H](Cc1c[nH]c2ccccc12)C(=O)N[C@@H](CCCCN)C(=O)N[C@@H](Cc1ccccc1)C(=O)N[C@@H](CCCCN)C(=O)NCC(=O)N[C@@H](CCCCN)C(=O)N[C@@H](Cc1c[nH]c2ccccc12)C(=O)N[C@@H](Cc1ccccc1)C(=O)N[C@@H](Cc1c[nH]c2ccccc12)C(=O)N[C@@H](Cc1ccccc1)C(=O)N[C@@H](Cc1c[nH]c2ccccc12)C(=O)NCC(=O)O (H-GKKYRRFWKFKGKWFWFWG-OH),8,32,8,1020,1020,16,16,64,16,,,
N=C(N)NCCC[C@H](NC(=O)[C@H](Cc1ccc(O)cc1)NC(=O)[C@H](CCCCN)NC(=O)[C@H](CCCCN)NC(=O)CN)C(=O)N[C@@H](CCCNC(=N)N)C(=O)N[C@@H](Cc1ccccc1)C(=O)N[C@@H](CCCNC(=N)N)C(=O)N[C@@H](Cc1c[nH]c2ccccc12)C(=O)N[C@@H](CCCCN)C(=O)N[C@@H](Cc1ccccc1)C(=O)N[C@@H](CCCCN)C(=O)NCC(=O)N[C@@H](CCCCN)C(=O)N[C@@H](Cc1c[nH]c2ccccc12)C(=O)N[C@@H](Cc1ccccc1)C(=O)N[C@@H](Cc1c[nH]c2ccccc12)C(=O)N[C@@H](Cc1ccccc1)C(=O)NCC(=O)O (H-GKKYRRFRWKFKGKWFWFG-OH),4,16,16,16,16,16,16,32,16,,,
N=C(N)NCCC[C@H](NC(=O)[C@H](Cc1ccc(O)cc1)NC(=O)[C@H](CCCCN)NC(=O)[C@H](CCCCN)NC(=O)[C@H](CS)NC(=O)CN)C(=O)N[C@@H](CCCNC(=N)N)C(=O)N[C@@H](Cc1ccccc1)C(=O)N[C@@H](CCCNC(=N)N)C(=O)N[C@@H](Cc1c[nH]c2ccccc12)C(=O)N[C@@H](CCCCN)C(=O)N[C@@H](Cc1ccccc1)C(=O)N[C@@H](CCCCN)C(=O)NCC(=O)N[C@@H](CCCCN)C(=O)N[C@@H](Cc1ccccc1)C(=O)N[C@@H](Cc1c[nH]c2ccccc12)C(=O)N[C@@H](Cc1ccccc1)C(=O)N[C@@H](Cc1c[nH]c2ccccc12)C(=O)O (H-GCKKYRRFRWKFKGKFWFW-OH),64,128,64,64,64,32,64,128,64,Active,,Non-toxic

# — ChEMBL document CHEMBL1687767, “New antiseptic peptides to protect against endotoxin-mediated shock” (Antimicrob Agents Chemother, 2010)
